Measured values as given in US11590139B2, “Substituted aminopurine compounds, compositions thereof, and methods of treatment therewith” (Signal Pharmaceuticals, LLC, priority 2014, dated 2023).

Each compound was assayed on Lox-IMVI melanoma cell line (assay: Lox-IMVI anti-proliferative assay (growth inhibition, Cell Titer-Glo)). Details: Homo sapiens; IC50 activity level in the cell-based Lox-IMVI anti-proliferative assay; read-out: Activity.
Type: cell-based, human
How it was run: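 IC50 values reflect the concentration giving 50% of DMSO-control luminescence after 72 h of treatment, fitted with a four-parameter logistic model. Cells were cultured in RPMI + 10% FBS with compound from 0.5 nM to 10 μM.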

Compared with `NC(=O)[C@H]1CC[C@@H](n2c(Nc3c(F)cccc3Cl)nc3cnc(N[C@@H]4CC[C@@H](O)C4)nc32)CC1` [Example 208, (1S,4s)-4-(8-(2-chloro-6-fluorophenylamino)-2-((1R,3R)-3-hydroxycyclopentylamino)-9H-purin-9-yl)cyclohexanecarboxamide], `NC(=O)[C@H]1CC[C@@H](n2c(Nc3c(Cl)cc(Cl)cc3Cl)nc3cnc(N[C@@H]4CC[C@@H](O)C4)nc32)CC1` [Example 212, (1S,4s)-4-(2-((1R,3R)-3-hydroxycyclopentylamino)-8-(2,4,6-trichlorophenylamino)-9H-purin-9-yl)cyclohexanecarboxamide] is lower in IC50: greater than 1000 nM for the first, 250 to 500 nM for the second. The second is the more potent here.

`NC(=O)[C@H]1CC[C@@H](n2c(Nc3c(Cl)cc(Cl)cc3Cl)nc3cnc(NCC(F)(F)F)nc32)CC1` [Example 109, (1s,4s)-4-(8-(2,4,6-trichlorophenylamino)-2-(2,2,2-trifluoroethylamino)-9H-purin-9-yl)cyclohexanecarboxamide] and `NC(=O)[C@H]1CC[C@@H](n2c(Nc3c(Cl)cc(Cl)cc3Cl)nc3cnc(N[C@H]4CCC[C@@H]4O)nc32)CC1` [Example 270, (1R,4s)-4-(2-((1S,2S)-2-hydroxycyclopentylamino)-8-(2,4,6-trichlorophenylamino)-9H-purin-9-yl)cyclohexanecarboxamide] cannot be ordered by IC50: greater than 1000 nM for the first, greater than 1000 nM for the second.

`NC(=O)[C@H]1CC[C@@H](n2c(Nc3c(F)cc(Cl)cc3F)nc3cnc(N[C@@H]4CCOC4)nc32)CC1` [Example 221, (1S,4s)-4-(8-(4-chloro-2,6-difluorophenylamino)-2-((R)-tetrahydrofuran-3-ylamino)-9H-purin-9-yl)cyclohexanecarboxamide] and `NC(=O)[C@H]1CC[C@@H](n2c(Nc3c(F)cc(Cl)cc3F)nc3cnc(N[C@@H]4CCC[C@H]4O)nc32)CC1` [Example 257, (1S,4s)-4-(8-(4-chloro-2,6-difluorophenylamino)-2-((1R,2R)-2-hydroxycyclopentylamino)-9H-purin-9-yl)cyclohexanecarboxamide] fall in the same range of IC50: 500 to 1000 nM for the first, 500 to 1000 nM for the second.

`NC(=O)[C@H]1CC[C@@H](n2c(Nc3ccc(Cl)cc3Cl)nc3cnc(N[C@@H]4CCC[C@H]4O)nc32)CC1` [Example 261, (1S,4s)-4-(8-(2,4-dichlorophenylamino)-2-((1R,2R)-2-hydroxycyclopentylamino)-9H-purin-9-yl)cyclohexanecarboxamide] and `NC(=O)[C@H]1CC[C@@H](n2c(Nc3c(Cl)cccc3Cl)nc3cnc(N[C@H]4CCC[C@@H]4O)nc32)CC1` [Example 268, (1R,4s)-4-(8-(2,6-dichlorophenylamino)-2-((1S,2S)-2-hydroxycyclopentylamino)-9H-purin-9-yl)cyclohexanecarboxamide] cannot be ordered by IC50: greater than 1000 nM for the first, greater than 1000 nM for the second.

`NC(=O)[C@H]1CC[C@@H](n2c(Nc3c(F)cc(Cl)cc3Cl)nc3cnc(NC4COCC4O)nc32)CC1` (stereo partly shown) [Example 182, (1s,4s)-4-(8-(2,4-dichloro-6-fluorophenylamino)-2-(4-hydroxytetrahydrofuran-3-ylamino)-9H-purin-9-yl)cyclohexanecarboxamide] and `NC(=O)[C@H]1CC[C@@H](n2c(Nc3c(Cl)cc(F)cc3Cl)nc3cnc(N[C@@H]4CCC[C@H]4O)nc32)CC1` [Example 256, (1S,4s)-4-(8-(2,6-dichloro-4-fluorophenylamino)-2-((1R,2R)-2-hydroxycyclopentylamino)-9H-purin-9-yl)cyclohexanecarboxamide] cannot be ordered by IC50: greater than 1000 nM for the first, greater than 1000 nM for the second.

First: NC(=O)[C@H]1CC[C@@H](n2c(Nc3cc(F)c(Cl)cc3F)nc3cnc(NC4CCOCC4)nc32)CC1 [Example 70, (1s,4s)-4-(8-(4-chloro-2,5-difluorophenylamino)-2-(tetrahydro-2H-pyran-4-ylamino)-9H-purin-9-yl)cyclohexanecarboxamide]
Second: NC(=O)[C@H]1CC[C@@H](n2c(Nc3ccc(Cl)c(F)c3F)nc3cnc(N[C@@H]4CCC[C@H](O)C4)nc32)CC1 [Example 360, (1S,4s)-4-(8-(4-chloro-2,3-difluorophenylamino)-2-((1R,3S)-3-hydroxycyclohexylamino)-9H-purin-9-yl)cyclohexanecarboxamide]
The IC50 of the first is lower: 500 to 1000 nM for the first, greater than 1000 nM for the second.

`CC(=O)N1CCC(Nc2ncc3nc(Nc4c(F)cc(Cl)cc4Cl)n([C@H]4CC[C@@H](C(N)=O)CC4)c3n2)CC1` [Example 198, (1s,4s)-4-(2-(1-acetylpiperidin-4-ylamino)-8-(2,4-dichloro-6-fluorophenylamino)-9H-purin-9-yl)cyclohexanecarboxamide] and `NC(=O)[C@H]1CC[C@@H](n2c(Nc3ccc(F)c(F)c3F)nc3cnc(N[C@@H]4CCC[C@H]4O)nc32)CC1` [Example 264, (1S,4s)-4-(2-((1R,2R)-2-hydroxycyclopentylamino)-8-(2,3,4-trifluorophenylamino)-9H-purin-9-yl)cyclohexanecarboxamide] cannot be ordered by IC50: greater than 1000 nM for the first, greater than 1000 nM for the second.

With `C[C@@H](CO)Nc1ncc2nc(Nc3c(F)cccc3F)n([C@H]3CC[C@@H](C(N)=O)CC3)c2n1` [Example 167, (1R,4s)-4-(8-(2,6-difluorophenylamino)-2-((S)-1 hydroxypropan-2-ylamino)-9H-purin-9-yl)cyclohexanecarboxamide] the IC50 was greater than 1000 nM.

Same assay, conditions: Homo sapiens; Lox-IMVI anti-proliferative assay, IC50 activity level; read-out: Activity

`NC(=O)[C@H]1CC[C@@H](n2c(Nc3c(Cl)cccc3Cl)nc3cnc(N[C@@H]4CCC[C@@H](O)C4)nc32)CC1` [Example 417, (1S,4s)-4-(8-(2,6-dichlorophenylamino)-2-((1R,3R)-3-hydroxycyclohexylamino)-9H-purin-9-yl)cyclohexanecarboxamide] and `NC(=O)[C@H]1CC[C@@H](n2c(Nc3c(F)cccc3Cl)nc3cnc(N[C@@H]4CCC[C@@H](O)C4)nc32)CC1` [Example 416, (1S,4s)-4-(8-(2-chloro-6-fluorophenylamino)-2-((1R,3R)-3-hydroxycyclohexylamino)-9H-purin-9-yl)cyclohexanecarboxamide] cannot be ordered by IC50: greater than 1000 nM for the first, greater than 1000 nM for the second.

First: C[C@@H]1COCC[C@H]1Nc1ncc2nc(Nc3c(Cl)cc(Cl)cc3Cl)n([C@H]3CC[C@@H](C(N)=O)CC3)c2n1 [Example 499, (1S,4s)-4-(2-((3S,4R)-3-methyltetrahydro-2H-pyran-4-ylamino)-8-(2,4,6-trichlorophenylamino)-9H-purin-9-yl)cyclohexanecarboxamide]
Second: C[C@H]1COCC[C@@H]1Nc1ncc2nc(Nc3c(Cl)cc(Cl)cc3Cl)n([C@H]3CC[C@@H](C(N)=O)CC3)c2n1 [Example 500, (1R,4s)-4-(2-((3R,4S)-3-methyltetrahydro-2H-pyran-4-ylamino)-8-(2,4,6-trichlorophenylamino)-9H-purin-9-yl)cyclohexanecarboxamide]
The IC50 of the first is lower: less than 250 nM for the first, 500 to 1000 nM for the second. The first is the more potent here.

First: C[C@]1(C(N)=O)CC[C@H](n2c(Nc3c(Cl)cc(C#N)cc3Cl)nc3cnc(NC4CCC(F)(F)CC4)nc32)CC1 [Example 479, (1r,4r)-4-(8-(2,6-dichloro-4-cyanophenylamino)-2-(4,4-difluorocyclohexylamino)-9H-purin-9-yl)-1-methylcyclohexanecarboxamide]
Second: C[C@]1(C(N)=O)CC[C@@H](n2c(Nc3c(Cl)cc(F)cc3Cl)nc3cnc(NC4CCCC4)nc32)CC1 [Example 560, (1s,4s)-4-(2-(cyclopentylamino)-8-(2,6-dichloro-4-fluorophenylamino)-9H-purin-9-yl)-1-methylcyclohexanecarboxamide]
The IC50 of the first is higher: greater than 1000 nM for the first, 250 to 500 nM for the second.

First: NC(=O)[C@H]1CC[C@@H](n2c(Nc3c(Cl)cc(OC(F)(F)F)cc3Cl)nc3cnc(NC4CCC(F)(F)CC4)nc32)CC1 [Example 596, (1s,4s)-4-(8-(2,6-dichloro-4-(trifluoromethoxy)phenylamino)-2-(4,4-difluorocyclohexylamino)-9H-purin-9-yl)cyclohexanecarboxamide]
Second: NC(=O)[C@H]1CC[C@@H](n2c(Nc3c(Cl)cc(F)cc3Cl)nc3cnc(N[C@H]4CCC(F)(F)C4)nc32)CC1 [Example 585, (1R,4s)-4-(8-(2,6-dichloro-4-fluorophenylamino)-2-((S)-3,3-difluorocyclopentylamino)-9H-purin-9-yl)cyclohexanecarboxamide]
The IC50 of the first is higher: greater than 1000 nM for the first, 500 to 1000 nM for the second. The second is the more potent here.

`C[C@@H](CO)Nc1ncc2nc(Nc3c(Cl)cc(C#N)cc3Cl)n([C@H]3CC[C@@](C)(C(N)=O)CC3)c2n1` [Example 553, (1R,4s)-4-(8-(2,6-dichloro-4-cyanophenylamino)-2-((S)-1-hydroxypropan-2-ylamino)-9H-purin-9-yl)-1-methylcyclohexanecarboxamide] gave an IC50 of less than 250 nM.

Same assay, conditions: Homo sapiens; Lox-IMVI melanoma cell line, anti-proliferative assay; read-out: Activity (IC50 activity level)

`Cc1ccc(S(=O)(=O)N2CCC[C@@H](Nc3ncc4nc(Nc5c(Cl)cc(F)cc5Cl)n([C@H]5CC[C@@H](C(N)=O)CC5)c4n3)C2)cc1` [Example 794, (1S,4s)-4-(8-(2,6-dichloro-4-fluorophenylamino)-2-((R)-1-tosylpiperidin-3-ylamino)-9H-purin-9-yl)cyclohexanecarboxamide] and `CC(C)N1CCC[C@@H](Nc2ncc3nc(Nc4c(Cl)cc(Cl)cc4Cl)n([C@H]4CC[C@@H](C(N)=O)CC4)c3n2)C1` [Example 738, (1S,4s)-4-(2-((R)-1-isopropylpiperidin-3-ylamino)-8-(2,4,6-trichlorophenylamino)-9H-purin-9-yl)cyclohexanecarboxamide] cannot be ordered by IC50: greater than 1000 nM for the first, greater than 1000 nM for the second.

With `C[C@]1(C(N)=O)CC[C@@H](n2c(Nc3c(Cl)cc(C#N)cc3Cl)nc3cnc(N[C@H]4CCC[C@H](O)C4)nc32)CC1` [Example 616, (1R,4s)-4-(8-(2,6-dichloro-4-cyanophenylamino)-2-((1S,3S)-3-hydroxycyclohexylamino)-9H-purin-9-yl)-1-methylcyclohexanecarboxamide] the IC50 was less than 250 nM.

Same assay, conditions: Lox-IMVI anti-proliferative assay, IC50 activity level; read-out: Activity

`N#Cc1cc(F)c(Nc2nc3cnc(N[C@H]4CCCOCC4)nc3n2C2CCC(C(N)=O)CC2)c(F)c1` (stereo partly shown) [Example 542, (1s,4s)-4-(8-(4-cyano-2,6-difluorophenylamino)-2-(oxepan-4-ylamino)-9H-purin-9-yl)cyclohexanecarboxamide] gave an IC50 greater than 1000 nM.
